What all share (assay type): functional
One test concerns SK-MEL-25. Briefly: Cytotoxicity against human SK-MEL-25 cells assessed as inhibition of cell growth incubated for 24 hrs by resazurin staining based analysis. Particulars: SK-MEL-25, 24 h.
The subject of a further test is SK-MEL-5. As to the kind of experiment: Cytotoxicity against human SK-MEL-5 cells assessed as inhibition of cell growth incubated for 24 hrs by resazurin staining based analysis. Particulars: SK-MEL-5, 24 h. (Alamar Blue is a resazurin reagent that responds to reducing activity.)
The next test relates to LOX IMVI. Briefly: Cytotoxicity against human LOX IMVI cells assessed as inhibition of cell growth incubated for 24 hrs by resazurin staining based analysis.
In a further test the test system is B16-F10. Briefly: Cytotoxicity against mouse B16-F10 cells assessed as inhibition of cell growth incubated for 24 hrs by resazurin staining based analysis. Particulars: B16-F10, 24 h.
The next test deals with SK-MEL-28. As to the kind of experiment: Cytotoxicity against human SK-MEL-28 cells assessed as inhibition of cell growth incubated for 24 hrs by resazurin staining based analysis. Particulars: SK-MEL-28, 24 h.

This passage reports IC50 results from ChEMBL document CHEMBL6182831, “Thiazole-fused androstenone and ethisterone derivatives: potent β- and γ-actin cytoskeleton inhibitors to treat melanoma tumors” (RSC Med Chem, 2025).

A word on the IC50: it is the point on the concentration scale where inhibition reaches its midpoint. As for `C#C[C@]1(O)CC[C@H]2[C@@H]3CC=C4c5sc(-c6cccc(O)c6)nc5CC[C@]4(C)[C@H]3CC[C@@]21C`, the IC50 with SK-MEL-25 was 6.6 µM; in the test with SK-MEL-5, 3.5 µM; with LOX IMVI, 4.1 µM; in the test with B16-F10, 2.9 µM; in the test on SK-MEL-28 it was 6 µM.

Turning to `C[C@]12CCc3nc(NCCc4ccccc4)sc3C1=CC[C@@H]1[C@@H]2CC[C@]2(C)C(=O)CC[C@@H]12`, the half-maximal inhibitory concentration (IC50) is above 20 µM with SK-MEL-25; 5.2 µM in the test on SK-MEL-5; 9 µM in the test on LOX IMVI; 6.1 µM with B16-F10; 5.4 µM in the test with SK-MEL-28.

Consider `C#C[C@]1(O)CC[C@H]2[C@@H]3CC=C4c5sc(Nc6cccc(C)n6)nc5CC[C@]4(C)[C@H]3CC[C@@]21C`, for which the IC50 was found to be 5.1 µM in the test on SK-MEL-25; 3.9 µM in the test with SK-MEL-5; 2.8 µM in the test on LOX IMVI; 6.5 µM with B16-F10; 3 µM with SK-MEL-28.

For the molecule `C#C[C@]1(O)CC[C@H]2[C@@H]3CC=C4c5sc(Nc6ccc(F)cn6)nc5CC[C@]4(C)[C@H]3CC[C@@]21C`, the IC50 in the test with SK-MEL-25 was determined as 3.2 µM; in the test on SK-MEL-5 it was 2.8 µM; in the test with LOX IMVI, 5.4 µM; in the test with B16-F10, 3.1 µM; with SK-MEL-28, 3.5 µM.

As to `C[C@]12CCc3nc(Nc4ccccc4F)sc3C1=CC[C@@H]1[C@@H]2CC[C@]2(C)C(=O)CC[C@@H]12`, the half-inhibitory concentration (IC50) was above 20 µM in the test with SK-MEL-25; above 20 µM with SK-MEL-5; 6.7 µM with LOX IMVI; 5.4 µM in the test on B16-F10; 6.4 µM with SK-MEL-28.

In the case of `C#C[C@]1(O)CC[C@H]2[C@@H]3CC=C4c5sc(Nc6cc(OC)ccc6Cl)nc5CC[C@]4(C)[C@H]3CC[C@@]21C`, the IC50 in the test on SK-MEL-25 came to 3.1 µM; in the test with SK-MEL-5 it was 4.8 µM; with LOX IMVI, 3.2 µM; in the test with B16-F10, 9.7 µM; in the test on SK-MEL-28, 3.4 µM.

Turning to `C#C[C@]1(O)CC[C@H]2[C@@H]3CC=C4c5sc(Nc6cc(OC)ccc6OC)nc5CC[C@]4(C)[C@H]3CC[C@@]21C`, the IC50 with SK-MEL-25 was 3.4 µM; with SK-MEL-5 it was 3.5 µM; in the test with LOX IMVI it was 2.4 µM; with B16-F10, 7.2 µM; with SK-MEL-28 it was 5 µM.

For the molecule `COc1ccc(OC)c(Nc2nc3c(s2)C2=CC[C@@H]4[C@H](CC[C@]5(C)C(=O)CC[C@@H]45)[C@@]2(C)CC3)c1`, the IC50 with SK-MEL-25 was above 20 µM; in the test with SK-MEL-5, above 20 µM; in the test on LOX IMVI it was 6.2 µM; in the test with B16-F10, 6.4 µM; in the test on SK-MEL-28, above 20 µM.

Turning to `C#C[C@]1(O)CC[C@H]2[C@@H]3CC=C4c5sc(-c6ccc(F)cc6)nc5CC[C@]4(C)[C@H]3CC[C@@]21C`, the IC50 in the test with SK-MEL-25 is above 20 µM; in the test with SK-MEL-5 it was above 20 µM; in the test with LOX IMVI it was 15.6 µM; in the test on B16-F10, 13.9 µM; with SK-MEL-28, above 20 µM.

With `C#C[C@]1(O)CC[C@H]2[C@@H]3CC=C4c5sc(Nc6ncccn6)nc5CC[C@]4(C)[C@H]3CC[C@@]21C`, the half-maximal inhibitory concentration (IC50) in the test with SK-MEL-25 worked out at 5.7 µM; in the test on SK-MEL-5 it was 4.9 µM; with LOX IMVI, 7.8 µM; with B16-F10 it was 13.5 µM; in the test with SK-MEL-28 it was 2.8 µM.

With `C#C[C@]1(O)CC[C@H]2[C@@H]3CC=C4c5sc(Nc6ccncc6)nc5CC[C@]4(C)[C@H]3CC[C@@]21C`, the IC50 in the test with SK-MEL-25 amounted to 7.9 µM; in the test with SK-MEL-5, 2.9 µM; in the test with LOX IMVI, 2.5 µM; in the test on B16-F10, 6.7 µM; in the test with SK-MEL-28 it was 4.2 µM.

With `C#C[C@]1(O)CC[C@H]2[C@@H]3CC=C4c5sc(Nc6cc(C)cc(C)n6)nc5CC[C@]4(C)[C@H]3CC[C@@]21C`, the IC50 in the test on SK-MEL-25 is 6.5 µM; in the test with SK-MEL-5, 2.5 µM; in the test on LOX IMVI, 4.1 µM; with B16-F10, 10.2 µM; in the test on SK-MEL-28, 5.5 µM.

As to `C#C[C@]1(O)CC[C@H]2[C@@H]3CC=C4c5sc(Nc6ccc(C)cn6)nc5CC[C@]4(C)[C@H]3CC[C@@]21C`, the IC50 in the test on SK-MEL-25 turned out to be 4.8 µM; with SK-MEL-5 it was 3.7 µM; in the test with LOX IMVI, 3.6 µM; with B16-F10, 7.7 µM; with SK-MEL-28 it was 4.6 µM.

Consider `Cc1ccc(Nc2nc3c(s2)C2=CC[C@@H]4[C@H](CC[C@]5(C)C(=O)CC[C@@H]45)[C@@]2(C)CC3)c(C)c1`, for which the IC50 in the test with SK-MEL-25 turned out to be 4.4 µM; in the test with SK-MEL-5, 6.6 µM; in the test with LOX IMVI it was 3.6 µM; in the test on B16-F10, 6.1 µM; in the test on SK-MEL-28, 1.9 µM.

Consider `C#C[C@]1(O)CC[C@H]2[C@@H]3CC=C4c5sc(-c6ccc7c(c6)OCO7)nc5CC[C@]4(C)[C@H]3CC[C@@]21C`, for which the IC50 in the test with SK-MEL-25 was 4.2 µM; in the test on SK-MEL-5, 4.9 µM; with LOX IMVI it was above 20 µM; in the test on B16-F10, 13 µM; in the test on SK-MEL-28, 6.1 µM.

For `C#C[C@]1(O)CC[C@H]2[C@@H]3CC=C4c5sc(N6CCN(C)CC6)nc5CC[C@]4(C)[C@H]3CC[C@@]21C`, the IC50 with SK-MEL-25 was determined as 2.8 µM; with SK-MEL-5, 2.6 µM; in the test with LOX IMVI, 7.4 µM; in the test on B16-F10, 2.8 µM; in the test with SK-MEL-28, 2 µM.

On to `C[C@]12CCc3nc(Nc4ccc(OC(F)(F)F)cc4)sc3C1=CC[C@@H]1[C@@H]2CC[C@]2(C)C(=O)CC[C@@H]12`, for which the IC50 is 12.5 µM in the test with SK-MEL-25; above 20 µM with SK-MEL-5; 9.3 µM in the test on LOX IMVI; 11.7 µM in the test on B16-F10; above 20 µM with SK-MEL-28.

As to `C#C[C@]1(O)CC[C@H]2[C@@H]3CC=C4c5sc(Nc6cccnc6)nc5CC[C@]4(C)[C@H]3CC[C@@]21C`, the concentration for half-maximal inhibition (IC50) in the test on SK-MEL-25 was determined as 2.1 µM; with SK-MEL-5, 3 µM; in the test on LOX IMVI, 2.6 µM; in the test on B16-F10, 10.7 µM; in the test with SK-MEL-28, 2.3 µM.

On to `C#C[C@]1(O)CC[C@H]2[C@@H]3CC=C4c5sc(Nc6ccc(Cl)cn6)nc5CC[C@]4(C)[C@H]3CC[C@@]21C`, for which the IC50 in the test with SK-MEL-25 turned out to be 8.3 µM; in the test with SK-MEL-5, 4.8 µM; with LOX IMVI, 5.4 µM; in the test on B16-F10, 3 µM; in the test on SK-MEL-28, 3.7 µM.

For the molecule `C[C@]12CCc3nc(Nc4ccc(F)cc4F)sc3C1=CC[C@@H]1[C@@H]2CC[C@]2(C)C(=O)CC[C@@H]12`, the IC50 in the test with SK-MEL-25 was above 20 µM; with SK-MEL-5, 11.5 µM; in the test with LOX IMVI, 2.8 µM; in the test on B16-F10, 5.5 µM; in the test on SK-MEL-28, 5.3 µM.

Take `C#C[C@]1(O)CC[C@H]2[C@@H]3CC=C4c5sc(Nc6cc(C)cc(C)c6)nc5CC[C@]4(C)[C@H]3CC[C@@]21C`: the half-maximal inhibitory concentration (IC50) came to 3.8 µM in the test on SK-MEL-25; 3.9 µM in the test on SK-MEL-5; 3.6 µM with LOX IMVI; 5.8 µM with B16-F10; 5 µM with SK-MEL-28.

Turning to `C#C[C@]1(O)CC[C@H]2[C@@H]3CC=C4c5sc(Nc6cccc(Cl)n6)nc5CC[C@]4(C)[C@H]3CC[C@@]21C`, the IC50 is 5.7 µM in the test on SK-MEL-25; 2.7 µM in the test on SK-MEL-5; 5.5 µM in the test on LOX IMVI; 3.8 µM in the test with B16-F10; 2.4 µM in the test with SK-MEL-28.
